Experiments:
MC38 cells = assay: In vitro growth of MC38 cells after MS-023 treatment and washout; assay type: cell-based, mouse; conditions: 5 μM for 96 hours
Procedure: Unless otherwise specified, cell lines were treated with splicing inhibitors at the indicated concentrations for 96 hours in vitro, harvested and washed three times with PBS in excess to remove all drug, and then used for downstream analyses and/or subsequent studies, including phenotyping, RNA-seq analyses, continued growth in vitro, or tumor challenge in vivo into syngeneic animals.

B16-F10 cells = assay: Engraftment of indisulam-treated B16-F10 cells into hosts with immune perturbations or with B2m knockout; assay type: in vivo, mouse
From the text: B16-F10, CT26.WT (CT26), and LLC cells were obtained from ATCC (Cat. CRL-6475, CRL-2638, and CRL-1642 respectively). MB49 cells were obtained from MilliporeSigma (Cat. SCC148, Burlington, Mass.); MC38 cells were obtained from Kerafast (Cat. ENH204-FP, Boston, Mass.). B16-F10 and MC38 cells expressing chicken ovalbumin (B16ova and MC38ova) were a kind gift of Jeff Ravetch (Rockefeller University, New York, N.Y.). To generate β2 microglobulin deficient cell lines for in vitro experiments, four candidate sgRNAs for mouse β2microglobulin (#1 […] (SEQ ID NO:2), #2 […] (SEQ ID NO:3), #3 […] (SEQ ID NO:4), #4 […]) (SEQ ID NO:5), or nontargeting control ([…]) (SEQ ID NO:6) were cloned into pSpCas9(BB)-2A-Puro (PX459) as previously described (Ran, F. A., et al. (2013). Genome engineering using the CRISPR-Cas9 system. Nat Protoc 8, 2281-2308, incorporated herein by reference in its entirety) and used to engineer deficient MC38, B16-F10, and CT26 cell lines via transfection using XtremeGene 9 reagent as per manufacturer's instructions (MilliporeSigma Cat. 6365809001) followed by puromycin selection at 10 μg/mL for three days. Polyclonal cell populations were obtained by flow sorting for H-2K^b/D^b and P2 microglobulin double-negative cells, and gene knockout further confirmed by stimulating a culture of these sorted cells for 48 hours with 10 U/mL mouse IFNγ and analyzing for the same markers. For in vivo experiments, lentiCas9-Blast was used to generate Cas9-expressing B16-F10 cells. […]
Unless otherwise specified, syngeneic B6 or Balb/c mice were engrafted subcutaneously on bilateral flanks with MC38, B16-F10, CT26 or LLC tumor cells at the following doses: MC38 10^6 cells, B16-F10 0.5×10^6 cells, CT26 0.25×10^6 cells, LLC 0.25×10^6 cells. Tumors were measured serially twice or three times weekly and tumor volumes were estimated by length×width×height. Animals were monitored daily for survival and weighed twice weekly. […]

SMILES: CC(C)Oc1ccc(-c2c[nH]cc2CN(C)CCN)cc1 [MS-023]
- cell growth in vitro after drug washout (MC38 cells): minimal effects

SMILES: NS(=O)(=O)c1ccc(S(=O)(=O)Nc2cccc3c(Cl)c[nH]c23)cc1 [indisulam]
- growth inhibition with loss of β2-microglobulin in B16-F10 (B16-F10 cells; B2m CRISPR knockout vs control B16-F10, indisulam pretreatment): rescued the growth inhibition
- in vivo growth inhibition with NK depletion (B16-F10 cells; B16-F10 treated 1 μM 96 hours, NK cell depletion): did not rescue cell growth
- in vivo tumor growth inhibition in Rag2 recipients and with T cell depletion (B16-F10 cells; B16-F10 treated 1 μM 96 hours, anti-CD4 and anti-CD8): rescued

Source: US20230190707A1, “COMPOSITIONS AND METHODS FOR ENHANCING CANCER IMMUNOTHERAPY” (FRED HUTCHINSON CANCER CENTER, priority 2020, published 2023)
